# ChEMBL document CHEMBL1255337, “Entecavir exhibits inhibitory activity against human immunodeficiency virus under conditions of reduced viral challenge” (Antimicrob Agents Chemother, 2008)
# Active and inactive are the calls of the source. The rule behind the calls is not given here.
# Assays:
# [1] = test system: Human immunodeficiency virus 1; experiment: microbe, parasite or virus in culture; conditions: Human immunodeficiency virus 1, NL4-3, MT2, 120 h
# Description: Antiviral activity against 0.005 MOI wild type HIV1 NL4-3 infected in human MT2 cells measured after 5 days by RT SPA
# [2] = test system: Human immunodeficiency virus 1; experiment: microbe, parasite or virus in culture; conditions: Human immunodeficiency virus 1, NL4-3, MT2, 120 h; remark: listed apart in the source
# Description: Antiviral activity against 0.01 MOI wild type HIV1 NL4-3 infected in human MT2 cells measured after 5 days by RT SPA
# CEM-SS = experiment: Cytotoxicity against human CEM-SS cells after 10 days by MTT assay; format: cell-based; conditions: 240 h
# [3] = test system: Human immunodeficiency virus 1; experiment: microbe, parasite or virus in culture; conditions: Human immunodeficiency virus 1, NL4-3, MT2, 120 h; remark: listed apart in the source
# Description: Antiviral activity against 0.05 MOI wild type HIV1 NL4-3 infected in human MT2 cells measured after 5 days by MTS assay
# [4] = test system: Human immunodeficiency virus 1; experiment: microbe, parasite or virus in culture; conditions: Human immunodeficiency virus 1, subtype B-3B, MT2
# Description: Antiviral activity against HIV1 subtype B-3B infected in 1 hr-pretreated human MT2 cells assessed as inhibition of multicycle replication measured on day 5 postinfection by RT SPA
# [5] = test system: Human immunodeficiency virus 1; format: functional, organism-based; conditions: Human immunodeficiency virus 1, NL4-3, MT2
# [6] = test system: Human immunodeficiency virus 1; experiment: microbe, parasite or virus in culture; conditions: Human immunodeficiency virus 1, subtype B-SF-2, MT2
# Description: Antiviral activity against HIV1 subtype B-SF-2 infected in 1 hr-pretreated human MT2 cells assessed as inhibition of multicycle replication measured on day 5 postinfection by RT SPA
# [7] = test system: Human immunodeficiency virus; experiment: Antiviral activity against HIV infected in CD4+ lymphocyte by fluorescence-activated cell sorter assay; format: functional, organism-based; conditions: Human immunodeficiency virus 1
# [8] = test system: Human immunodeficiency virus 1; experiment: Antiviral activity against 0.006 MOI HIV1 NL4-3 infected in 1 hr-pretreated human MT2 cells measured after 5 days by RT SPA; format: functional, organism-based; conditions: Human immunodeficiency virus 1, NL4-3, MT2
# [9] = Cmax in human blood; format: ADME, organism-based
# [10] = test system: Human immunodeficiency virus 1; experiment: microbe, parasite or virus in culture; conditions: Human immunodeficiency virus 1, NL4-3, MT2
# [11] = test system: Human immunodeficiency virus 1; experiment: Antiviral activity against HIV1 3B infected in MOLT-4/3B cells assessed as inhibition of mature virus release measured after 4 days of infection by RT assay; format: functional, organism-based; conditions: Human immunodeficiency virus 1, 3B, MOLT-4, 96 h
# [12] = test system: Human immunodeficiency virus 1; experiment: microbe, parasite or virus in culture; conditions: Human immunodeficiency virus 1, NL4-3, MT2, 120 h; remark: listed apart in the source
# Description: Antiviral activity against 0.02 MOI wild type HIV1 NL4-3 infected in human MT2 cells measured after 5 days by MTS assay
# [13] = test system: Human immunodeficiency virus 1; experiment: microbe, parasite or virus in culture; conditions: Human immunodeficiency virus 1, subtype B-LAI, MT2
# Description: Antiviral activity against HIV1 subtype B-LAI infected in 1 hr-pretreated human MT2 cells assessed as inhibition of multicycle replication measured on day 5 postinfection by RT SPA
# [14] = test system: Human immunodeficiency virus 1; experiment: Antiviral activity against HIV1 subtype B-NL4-3 infected in 2 hrs pretreated human MT2 cells assessed as inhibition of multicycle replication measured on day 5 postinfection by RT SPA; format: functional, organism-based; conditions: Human immunodeficiency virus 1, subtype B-NL4-3, MT2
# [15] = test system: Human immunodeficiency virus 1; experiment: microbe, parasite or virus in culture; conditions: Human immunodeficiency virus 1, NL4-3, MT2, 120 h; remark: listed apart in the source
# Description: Antiviral activity against 0.01 MOI wild type HIV1 NL4-3 infected in human MT2 cells measured after 5 days by MTS assay
# [16] = test system: Human immunodeficiency virus 1; experiment: microbe, parasite or virus in culture; conditions: Human immunodeficiency virus 1, subtype B-RF, MT2
# Description: Antiviral activity against HIV1 subtype B-RF infected in 1 hr-pretreated human MT2 cells assessed as inhibition of multicycle replication measured on day 5 postinfection by RT SPA
# [17] = test system: Human immunodeficiency virus 1; experiment: microbe, parasite or virus in culture; conditions: Human immunodeficiency virus 1, NL4-3, MT2; remark: listed apart in the source
# Description: Antiviral activity against 0.01 MOI wild type HIV1 NL4-3 infected in 2 hr-pretreated human MT2 cells measured after 5 days by MTS assay
# [18] = test system: Human immunodeficiency virus 1; experiment: microbe, parasite or virus in culture; conditions: Human immunodeficiency virus 1, NL4-3, MT2, 120 h; remark: listed apart in the source
# Description: Antiviral activity against 0.05 MOI wild type HIV1 NL4-3 infected in human MT2 cells measured after 5 days by RT SPA
# [19] = test system: Human immunodeficiency virus 1; experiment: Antiviral activity against pseudotype HIV1 LAI-Luc infected in human MT2 cells measured on day 3 postinfection by luciferase reporter gene assay; format: functional, organism-based; conditions: Human immunodeficiency virus 1, LAI-Luc, MT2, 72 h
# [20] = test system: Human immunodeficiency virus 1; experiment: microbe, parasite or virus in culture; conditions: Human immunodeficiency virus 1, NL-RLuc, MT2, 120 h
# Description: Antiviral activity against pseudotype HIV1 NL-RLuc infected in human MT2 cells measured on day 5 postinfection by luciferase reporter gene assay
# [21] = test system: Human immunodeficiency virus 1; experiment: microbe, parasite or virus in culture; conditions: Human immunodeficiency virus 1, NL4-3, MT2, 120 h; remark: listed apart in the source
# Description: Antiviral activity against 0.005 MOI wild type HIV1 NL4-3 infected in human MT2 cells measured after 5 days by MTS assay
# [22] = test system: Human immunodeficiency virus 1; experiment: Antiviral activity against HIV1 NL4-3 harboring M184L mutant RT infected in human MT2 cellssmeasured after 7 passages on day 34 postinfection; format: functional, organism-based; conditions: Human immunodeficiency virus 1, NL4-3, MT2
# [23] = test system: Human immunodeficiency virus 1; experiment: Antiviral activity against HIV1 infected in human CEM-SS cells after 10 days by MTT assay; format: functional, organism-based; conditions: Human immunodeficiency virus 1, CEM-SS, 240 h
# [24] = test system: Human immunodeficiency virus 1; experiment: Antiviral activity against 0.006 MOI HIV1 NL4-3 infected in human MT2 cells measured after 5 days by RT SPA; format: functional, organism-based; conditions: Human immunodeficiency virus 1, NL4-3, MT2, 120 h
# [25] = test system: Human immunodeficiency virus 1; experiment: microbe, parasite or virus in culture; conditions: Human immunodeficiency virus 1, subtype B-HXB2, MT2
# Description: Antiviral activity against HIV1 subtype B-HXB2 infected in 1 hr-pretreated human MT2 cells assessed as inhibition of multicycle replication measured on day 5 postinfection by RT SPA
# [26] = test system: Human immunodeficiency virus 1; experiment: microbe, parasite or virus in culture; conditions: Human immunodeficiency virus 1, NL4-3, MT2; remark: listed apart in the source
# Description: Antiviral activity against 0.05 MOI wild type HIV1 NL4-3 infected in 2 hr-pretreated human MT2 cells measured after 5 days by MTS assay
# [27] = test system: Human immunodeficiency virus 1; experiment: microbe, parasite or virus in culture; conditions: Human immunodeficiency virus 1, subtype B-93US143, PBMC
# Description: Antiviral activity against HIV1 subtype B-93US143 infected in 1 hr-pretreated PBMC cells assessed as inhibition of p24 antigen production measured on day 5 postinfection by ELISA
# [28] = test system: Human immunodeficiency virus 1; experiment: Antiviral activity against pseudotype HIV1 NL-Luc infected in 24 hrs pretreated HEK293 cells by phenosense assay; format: functional, organism-based; conditions: Human immunodeficiency virus 1, NL-Luc
# [29] = test system: Human immunodeficiency virus 1; experiment: microbe, parasite or virus in culture; conditions: Human immunodeficiency virus 1, subtype B-NL4-3, MT2
# Description: Antiviral activity against HIV1 subtype B-NL4-3 infected in 1 hr-pretreated human MT2 cells assessed as inhibition of multicycle replication measured on day 5 postinfection by RT SPA
# [30] = test system: Human immunodeficiency virus 1; experiment: microbe, parasite or virus in culture; conditions: Human immunodeficiency virus 1, subtype B-ASM 044, PBMC
# Description: Antiviral activity against HIV1 subtype B-ASM 044 infected in 1 hr-pretreated PBMC cells assessed as inhibition of p24 antigen production measured on day 5 postinfection by ELISA
# [31] = test system: Human immunodeficiency virus 1; experiment: microbe, parasite or virus in culture; conditions: Human immunodeficiency virus 1, NL4-3, MT2; remark: listed apart in the source
# Description: Antiviral activity against 0.02 MOI wild type HIV1 NL4-3 infected in 2 hr-pretreated human MT2 cells measured after 5 days by MTS assay
# [32] = test system: Human immunodeficiency virus 1; experiment: Antiviral activity against HIV1 subtype B-NL4-3 infected in 3 hrs pretreated human MT2 cells assessed as inhibition of multicycle replication measured on day 5 postinfection by RT SPA; format: functional, organism-based; conditions: Human immunodeficiency virus 1, subtype B-NL4-3, MT2
# [33] = test system: Human immunodeficiency virus 1; experiment: microbe, parasite or virus in culture; conditions: Human immunodeficiency virus 1, NL4-3, MT2; remark: listed apart in the source
# Description: Antiviral activity against 0.02 MOI wild type HIV1 NL4-3 infected in 2 hr-pretreated human MT2 cells measured after 5 days by RT SPA
# [34] = test system: Human immunodeficiency virus 1; experiment: microbe, parasite or virus in culture; conditions: Human immunodeficiency virus 1, NL4-3, MT2, 120 h; remark: listed apart in the source
# Description: Antiviral activity against 0.02 MOI wild type HIV1 NL4-3 infected in human MT2 cells measured after 5 days by RT SPA
# [35] = test system: Human immunodeficiency virus 1; experiment: microbe, parasite or virus in culture; conditions: Human immunodeficiency virus 1, subtype B-92US076, PBMC
# Description: Antiviral activity against HIV1 subtype B-92US076 infected in 1 hr-pretreated PBMC cells assessed as inhibition of p24 antigen production measured on day 5 postinfection by ELISA
# [36] = Cmax in human at 1 mg, po; conditions: in vivo
# [37] = test system: Human immunodeficiency virus 1; format: functional, organism-based; conditions: Human immunodeficiency virus 1, NL4-3, MT2; remark: listed apart in the source
# [38] = test system: Human immunodeficiency virus 1; experiment: Antiviral activity against 0.006 MOI HIV1 NL4-3 infected in 2 hr-pretreated human MT2 cells measured after 5 days by RT SPA; format: functional, organism-based; conditions: Human immunodeficiency virus 1, NL4-3, MT2
# [39] = test system: Human immunodeficiency virus 1; experiment: microbe, parasite or virus in culture; conditions: Human immunodeficiency virus 1, NL4-3, MT2; remark: listed apart in the source
# Description: Antiviral activity against 0.005 MOI wild type HIV1 NL4-3 infected in 2 hr-pretreated human MT2 cells measured after 5 days by MTS assay
# [40] = test system: Human immunodeficiency virus 1; experiment: microbe, parasite or virus in culture; conditions: Human immunodeficiency virus 1, NL4-3, MT2; remark: listed apart in the source
# Description: Antiviral activity against 0.005 MOI wild type HIV1 NL4-3 infected in 2 hr-pretreated human MT2 cells measured after 5 days by RT SPA
# [41] = test system: Human immunodeficiency virus 1; experiment: Antiviral activity against pseudotype HIV1 LAI-Luc infected in CD4-positive human HeLa cells measured on day 3 postinfection by luciferase reporter gene assay; format: functional, organism-based; conditions: Human immunodeficiency virus 1, LAI-Luc, 72 h
# [42] = test system: Human immunodeficiency virus 1; experiment: Antiviral activity against 0.005 MOI HIV1 NL4-3 harboring wild type RT infected in human MT2 cells by phenosense assay; format: functional, organism-based; conditions: Human immunodeficiency virus 1, NL4-3, MT2
# [43] = test system: Human immunodeficiency virus 1; experiment: microbe, parasite or virus in culture; conditions: Human immunodeficiency virus 1, NL4-3, MT2; remark: listed apart in the source
# Description: Antiviral activity against 0.05 MOI wild type HIV1 NL4-3 infected in 2 hr-pretreated human MT2 cells measured after 5 days by RT SPA
# Hepatitis B virus = experiment: Antiviral activity against Hepatitis B virus; format: functional, organism-based
# [44] = test system: Human immunodeficiency virus 1; experiment: Antiviral activity against pseudotype HIV1 LAI-Luc infected in human PBMC measured on day 3 postinfection by luciferase reporter gene assay; format: functional, organism-based; conditions: Human immunodeficiency virus 1, LAI-Luc, 72 h
# [45] = test system: Human immunodeficiency virus 1; format: functional, organism-based; conditions: NL4-3, 2.5 uM
# [46] = test system: Human immunodeficiency virus 1; experiment: microbe, parasite or virus in culture; conditions: Human immunodeficiency virus 1, subtype B-ASM 034, PBMC
# Description: Antiviral activity against HIV1 subtype B-ASM 034 infected in 1 hr-pretreated PBMC cells assessed as inhibition of p24 antigen production measured on day 5 postinfection by ELISA
# [47] = test system: Human immunodeficiency virus 1; experiment: microbe, parasite or virus in culture; conditions: Human immunodeficiency virus 1, NL4-3, MT2; remark: listed apart in the source
# Description: Antiviral activity against 0.01 MOI wild type HIV1 NL4-3 infected in 2 hr-pretreated human MT2 cells measured after 5 days by RT SPA
structure (smiles),measurement,setting,value
C=C1[C@H](CO)[C@@H](O)C[C@@H]1n1cnc2c(=O)[nH]c(N)nc21.O [ENTECAVIR],EC50,[1],0.056 µM
same,EC50,[2],0.095 µM
same,CC50,CEM-SS,21 µM
same,EC50,[3],> 10 µM
same,EC50,[4],0.081 µM
same,EC50,[5],> 10 µM
same,EC50,[6],0.526 µM
same,EC50,[7],0.0001 µM
same,EC50,[8],0.287 µM
same,Cmax,[9],30 nM
same,EC50,[10],0.056 µM
same,EC50,[11],> 38 µM
same,EC50,[12],> 6.35 µM
same,EC50,[13],0.071 µM
same,EC50,[14],1.4 µM
same,EC50,[15],> 2.9 µM
same,EC50,[16],0.839 µM
same,EC50,[17],> 9.69 µM
same,EC50,[18],6.45 µM
same,EC50,[19],> 1.2 µM
same,EC50,[20],1.3 µM
same,EC50,[21],1.36 µM
same,EC50,[22],> 10 µM
same,EC50,[23],> 10 µM
same,EC50,[24],0.151 µM
same,EC50,[25],1.03 µM
same,EC50,[26],> 10 µM
same,EC50,[27],1.75 µM
same,EC50,[28],30.6 µM
same,EC50,[29],0.085 µM
same,EC50,[30],0.026 µM
same,EC50,[31],> 10 µM
same,EC50,[32],> 10 µM
same,EC50,[33],> 10000 µM
same,EC50,[34],0.449 µM
same,EC50,[35],0.062 µM
same,Cmax,[36],30 nM
same,EC50,[37],> 100 µM
same,EC50,[38],13.5 µM
same,EC50,[39],> 10 µM
same,EC50,[40],3.62 µM
same,EC50,[41],> 4 µM
same,EC50,[42],30.6 µM
same,EC50,[43],> 10000 µM
same,EC50,Hepatitis B virus,0.004 µM
same,EC50,[44],> 2.5 µM
same,Activity,[45],Active
same,EC50,[46],0.109 µM
same,EC50,[47],9.57 µM
O=C1Nc2ccc(Cl)cc2[C@@](C#CC2CC2)(C(F)(F)F)O1 [EFAVIRENZ],EC50,[5],0.0002 µM
Nc1ccn([C@@H]2CS[C@H](CO)O2)c(=O)n1 [LAMIVUDINE],EC50,[1],0.04 µM
same,EC50,[2],0.063 µM
same,EC50,[3],0.927 µM
same,EC50,[4],0.047 µM
same,EC50,[5],> 10 µM
same,EC50,[6],0.183 µM
same,EC50,[10],0.04 µM
same,EC50,[11],> 100 µM
same,EC50,[12],0.969 µM
same,EC50,[13],0.182 µM
same,EC50,[15],0.554 µM
same,EC50,[16],0.105 µM
same,EC50,[17],1.68 µM
same,EC50,[18],0.372 µM
same,EC50,[20],1.14 µM
same,EC50,[21],0.219 µM
same,EC50,[25],0.202 µM
same,EC50,[26],3.25 µM
same,EC50,[27],0.85 µM
same,EC50,[29],0.171 µM
same,EC50,[30],0.04 µM
same,EC50,[31],2.44 µM
same,EC50,[33],1.99 µM
same,EC50,[34],0.086 µM
same,EC50,[35],0.081 µM
same,EC50,[39],1.26 µM
same,EC50,[40],0.462 µM
same,EC50,[43],2.47 µM
same,Activity,[45],inactive
same,EC50,[46],0.071 µM
same,EC50,[47],0.667 µM
Cc1cn([C@H]2C[C@H](N=[N+]=[N-])[C@@H](CO)O2)c(=O)[nH]c1=O [ZIDOVUDINE],EC50,[1],0.01 µM
same,EC50,[2],0.008 µM
same,EC50,[3],0.087 µM
same,EC50,[4],0.0012 µM
same,EC50,[5],0.005 µM
same,EC50,[6],0.0063 µM
same,EC50,[10],0.01 µM
same,EC50,[11],> 10 µM
same,EC50,[12],0.054 µM
same,EC50,[13],0.0038 µM
same,EC50,[15],0.038 µM
same,EC50,[16],0.0029 µM
same,EC50,[17],0.144 µM
same,EC50,[18],0.043 µM
same,EC50,[20],0.016 µM
same,EC50,[21],0.027 µM
same,EC50,[25],0.014 µM
same,EC50,[26],0.302 µM
same,EC50,[27],0.034 µM
same,EC50,[29],0.0049 µM
same,EC50,[30],0.016 µM
same,EC50,[31],0.223 µM
same,EC50,[33],0.209 µM
same,EC50,[34],0.018 µM
same,EC50,[35],0.008 µM
same,EC50,[39],0.117 µM
same,EC50,[40],0.051 µM
same,EC50,[43],0.249 µM
same,EC50,[46],0.018 µM
same,EC50,[47],0.075 µM
Cc1c(O)cccc1C(=O)N[C@@H](CSc1ccccc1)[C@H](O)CN1C[C@H]2CCCC[C@H]2C[C@H]1C(=O)NC(C)(C)C [NELFINAVIR],EC50,[11],0.029 µM
